US20250145596A1, “HETEROCYCLIC GLP-1 AGONISTS” (Gasherbrum Bio, Inc., priority 2022, published 2025)

Target: T1, GLP-1 Receptor (Homo sapiens, UniProt P43220)
T1 construct: host or cells: HEK293/CRE-Luc
Experiment: GLP-1R agonist cAMP stimulation assay
Format: cell-based
Details: HEK293/CRE-Luc cell line stably expressing the GLP-1 Receptor; 30 min at 37° C.; cAMP dynamic 2 Kit
Protocol: Activation of GLP-1 receptor is known to stimulate cyclic AMP (cAMP) production in cells which indicates primary coupling to the Gas subunit of the G protein heterotrimeric complex.
To optimize functional activity directed toward Gas coupling, a HEK293/CRE-Luc cell line developed by HDB stably expressing the GLP-1 Receptor was used. 200× concentration of compound working solutions were prepared (Agilent Technologies Bravo) with ½ log serial dilution in 384-well Echo LDV plate (Labcyte, Cat #LP-0200). 50 nL/well 200× concentration of compound working solutions were moved to 384-well white low volume plate (Greiner, Cat #784075) using Labcyte ECHO550. 1×10^5 cells/mL HEK293/GLPlR/CRE-LUC (HD Biosciences) cell suspensions prepared with assay buffer [DPBS containing 0.5 mM IBMX (Sigma, Cat #15879) and 0.1% BSA (GENVIEW, Cat #FA016-100g)], 10 μL cell suspensions were added to each well of previous generated assay plate which already contains 50 nL compound at 200× concentration using ThermoFisher Multidrop Combi (1000 cells/well). Seal the plate and incubate at 37° C. with 5% CO2 for 30 min.
After incubation the cAMP assay signal was generated using cAMP dynamic 2 Kit (Cisbio). 5 μL cAMP-d2 working solution was added to each well, followed with 5 μL Anti-cAMP antibody-cryptate working solution added to each well using ThermoFisher Multidrop Combi. Incubate at room temperature for 1 hour protected from light. Read the fluorescence at 665 and 615 nm with Reader PerkinElmer EnVision.
% Activity=100%×(mean RLU of test sample mean RLU of vehicle control)/(mean RLU of MAX control−mean RLU of vehicle control))

T1 sequence (P43220 24-463): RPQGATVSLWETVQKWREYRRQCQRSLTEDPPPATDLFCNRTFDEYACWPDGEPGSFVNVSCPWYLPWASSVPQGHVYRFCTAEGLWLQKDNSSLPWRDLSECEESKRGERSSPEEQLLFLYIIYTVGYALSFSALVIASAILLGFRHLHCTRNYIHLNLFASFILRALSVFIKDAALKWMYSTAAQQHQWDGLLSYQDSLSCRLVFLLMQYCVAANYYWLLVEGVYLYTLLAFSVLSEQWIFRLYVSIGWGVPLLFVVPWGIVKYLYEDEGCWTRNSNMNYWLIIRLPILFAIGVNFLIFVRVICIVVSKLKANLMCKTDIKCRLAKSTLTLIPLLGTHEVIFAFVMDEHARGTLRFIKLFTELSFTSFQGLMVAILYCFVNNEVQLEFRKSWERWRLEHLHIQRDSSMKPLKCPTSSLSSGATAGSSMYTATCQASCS

Row | SMILES | EC50 [nM]
1 | Cc1ccc(C2(C)Oc3cccc(C4CCN(Cc5ncc(-c6nnc(C(F)(F)F)[nH]6)cc5CC5(C#N)CC5)CC4)c3O2)c(Cl)c1 (centres unmarked) [Example 6, 1-((2-((4-(2-(2-Chloro-4-methylphenyl)-2-methylbenzo[d][1,3]dioxol-4-yl)piperidin-1-yl)methyl)-5-(5-(trifluoromethyl)-4H-1,2,4-triazol-3-yl)pyridin-3-yl)methyl)cyclopropane-1-carbonitrile] | < 1
2 | CC1(c2ccc(Cl)cc2F)Oc2cccc(C3CCN(Cc4ncc(-c5nnc(C(F)(F)F)[nH]5)cc4CC4(C#N)CC4)CC3O)c2O1 (single isomer, unassigned) [Example 24, 1-[(2-{[(3,4-trans)-4-[2-(4-chloro-2-fluorophenyl)-2-methyl-2H-1,3-benzodioxol-4-yl]-3-hydroxypiperidin-1-yl]methyl}-5-[5-(trifluoromethyl)-4H-1,2,4-triazol-3-yl]pyridin-3-yl)methyl]cyclopropane-1-carbonitrile] | < 1
3 | C[C@]1(c2ccc(Cl)cc2F)Oc2cccc(C3CCN(Cc4ncc(C5CC5C(=O)O)cc4CC4(C#N)CC4)CC3)c2O1 (stereo partly drawn) [Example 67, 2-(6-((4-((S)-2-(4-chloro-2-fluorophenyl)-2-methylbenzo[d][1,3]dioxol-4-yl)piperidin-1-yl)methyl)-5-((1-cyanocyclopropyl)methyl)pyridin-3-yl)cyclopropane-1-carboxylic acid] | 1 to 100
4 | Cc1cc(-c2nnn[nH]2)nnc1CN1CCC(c2cccc3c2O[C@@](C)(c2ccc(Cl)cc2F)O3)CC1 [Example 50, 3-({4-[(2S)-2-(4-chloro-2-fluorophenyl)-2-methyl-1,3-benzodioxol-4-yl]piperidin-1-yl}methyl)-4-methyl-6-(1H-1,2,3,4-tetrazol-5-yl)pyridazine] | 1 to 100
5 | CN(C)C(=O)Cc1cc(-c2nnc(C(F)(F)F)[nH]2)cnc1CN1CCC(c2cccc3c2O[C@@](C)(c2ccc(Cl)cc2F)O3)CC1 [Example 56, (S)-2-(2-((4-(2-(4-chloro-2-fluorophenyl)-2-methylbenzo[d][1,3]dioxol-4-yl)piperidin-1-yl)methyl)-5-(5-(trifluoromethyl)-4H-1,2,4-triazol-3-yl)pyridin-3-yl)-N,N-dimethylacetamide] | 1 to 100
6 | Cc1cc(-c2noc(=O)[nH]2)nnc1CN1CCC(c2cccc3c2O[C@@](C)(c2ccc(Cl)cc2F)O3)CC1 [Example 51, (S)-3-(6-((4-(2-(4-chloro-2-fluorophenyl)-2-methylbenzo[d][1,3]dioxol-4-yl)piperidin-1-yl)methyl)-5-methylpyridazin-3-yl)-1,2,4-oxadiazol-5(4H)-one] | 1 to 100
7 | N#CC1(Cc2cc(-c3nnc(C(F)(F)F)[nH]3)cnc2CN2CCC(c3cccc(OCc4ccc(Cl)c5ccoc45)n3)CC2)CC1 [Example 64, 1-((2-((4-(6-((4-chlorobenzofuran-7-yl)methoxy)pyridin-2-yl)piperidin-1-yl)methyl)-5-(5-(trifluoromethyl)-4H-1,2,4-triazol-3-yl)pyridin-3-yl)methyl)cyclopropane-1-carbonitrile] | < 1
8 | Cc1ccc(C2(C)Oc3cccc(C4=CCN(Cc5ncc(-c6nnc(C(F)(F)F)[nH]6)cc5CC5(C#N)CC5)CC4)c3O2)c(Cl)c1 (centres unmarked) [Example 65, 1-((2-((4-(2-(2-chloro-4-methylphenyl)-2-methylbenzo[d][1,3]dioxol-4-yl)-3,6-dihydropyridin-1(2H)-yl)methyl)-5-(5-(trifluoromethyl)-4H-1,2,4-triazol-3-yl)pyridin-3-yl)methyl)cyclopropane-1-carbonitrile] | < 1
9 | CC1(c2ccc(F)cc2F)Oc2cccc(C3CCN(Cc4ncc(-c5nnc(C(F)(F)F)[nH]5)cc4CC4(C#N)CC4)CC3)c2O1 (centres unmarked) [Example 5, 1-{[2-({4-[2-(2,4-difluorophenyl)-2-methyl-2H-1,3-benzodioxol-4-yl]piperidin-1-yl}methyl)-5-[5-(trifluoromethyl)-4H-1,2,4-triazol-3-yl]pyridin-3-yl]methyl}cyclopropane-1-carbonitrile] | < 1
10 | CC1(c2ccc(Cl)cc2F)Oc2ccc(F)c(C3CCN(Cc4ncc(-c5nnc(C(F)(F)F)[nH]5)cc4CC4(C#N)CC4)CC3)c2O1 (centres unmarked) [Example 15, 1-{[2-({4-[2-(4-Chloro-2-fluorophenyl)-5-fluoro-2-methyl-2H-1,3-benzodioxol-4-yl]piperidin-1-yl}methyl)-5-[5-(trifluoromethyl)-4H-1,2,4-triazol-3-yl]pyridin-3-yl]methyl}cyclopropane-1-carbonitrile] | < 1
11 | N#CC1(Cc2cc(-c3nnc(C(F)(F)F)[nH]3)cnc2CN2CCC(Oc3ccnc(Cc4ccc(Cl)cc4F)n3)CC2)CC1 [Example 86] | 1 to 100
12 | CS(=O)(=O)Cc1cc(-c2nnc(C(F)(F)F)[nH]2)cnc1CN1CCC(c2ccc(F)c(OCc3ccc(Cl)cc3F)n2)CC1 [Example 61, 2-[(4-{6-[(4-chloro-2-fluorophenyl)methoxy]-5-fluoropyridin-2-yl}piperidin-1-yl)methyl]-3-(methanesulfonylmethyl)-5-[5-(trifluoromethyl)-4H-1,2,4-triazol-3-yl]pyridine] | < 1
13 | N#CC1(Cc2cc(-c3nnc(C(F)(F)F)[nH]3)cnc2CN2CC=C(c3ccc(F)c(OCc4ccc(Cl)cc4F)c3)CC2)CC1 [Example 48, 1-({2-[(4-{3-[(4-chloro-2-fluorophenyl)methoxy]-4-fluorophenyl}-1,2,3,6-tetrahydropyridin-1-yl)methyl]-5-[5-(trifluoromethyl)-4H-1,2,4-triazol-3-yl]pyridin-3-yl}methyl)cyclopropane-1-carbonitrile] | 1 to 100
14 | N#CC1(Cc2cc(-c3noc(=O)[nH]3)cnc2CN2CCC(c3cccc(OCc4ccc(Cl)cc4F)n3)CC2)CC1 [Example 82] | 1 to 100
15 | COC1(Cc2cc(-c3nnc(C(F)(F)F)[nH]3)cnc2CN2CCC(c3cccc4c3O[C@@](C)(c3ccc(Cl)cc3F)O4)CC2)CC1 [Example 53, 2-({4-[(2S)-2-(4-chloro-2-fluorophenyl)-2-methyl-2H-1,3-benzodioxol-4-yl]piperidin-1-yl}methyl)-3-[(1-methoxycyclopropyl)methyl]-5-[5-(trifluoromethyl)-4H-1,2,4-triazol-3-yl]pyridine] | 1 to 100
16 | C[C@]1(c2ccc(Cl)cc2F)Oc2cccc(C3CCN(Cc4ncc(/C=C/C(=O)O)cc4CC4(C#N)CC4)CC3)c2O1 [Example 20, (S,E)-3-(6-((4-(2-(4-chloro-2-fluorophenyl)-2-methylbenzo[d][1,3]dioxol-4-yl)piperidin-1-yl)methyl)-5-((1-cyanocyclopropyl)methyl)pyridin-3-yl)acrylic acid] | < 1
17 | Cc1cc(-c2cnn(C)c2)cnc1CN1CCC(c2cccc(OCc3ccc(Cl)cc3F)n2)CC1 [Example 99] | > 100
18 | C[C@]1(c2ccc(Cl)cn2)Oc2cccc(C3CCN(Cc4ncc(-c5nnc(C(F)(F)F)[nH]5)cc4CC4(C#N)CC4)CC3F)c2O1 (single isomer, unassigned) [Example 26] | < 1
19 | N#CC1(Cc2cc(-c3nnc(C(F)(F)F)[nH]3)cnc2CN2CCC(c3cccc4c3OC[C@@H](c3ccc(Cl)cc3)O4)CC2)CC1 [Example 39, 1-{[2-({4-[(2R)-2-(4-chlorophenyl)-2,3-dihydro-1,4-benzodioxin-5-yl]piperidin-1-yl}methyl)-5-[5-(trifluoromethyl)-4H-1,2,4-triazol-3-yl]pyridin-3-yl]methyl}cyclopropane-1-carbonitrile] | 1 to 100
20 | C[C@]1(c2ccc(Cl)cn2)Oc2cccc(C3CCN(Cc4ncc(-c5nnn[nH]5)cc4CC4(C#N)CC4)CC3)c2O1 [Example 75] | < 1
21 | C[C@]1(c2ccc(Cl)cc2F)Oc2c(F)ccc(C3CCN(Cc4ncc(-c5nnc(C(F)(F)F)[nH]5)cc4CC4(C#N)CC4)CC3F)c2O1 (single isomer, unassigned) [Example 30] | < 1
22 | Cc1nc(-c2cnc(CN3CCC(c4cccc5c4OC(C)(c4ccc(Cl)cc4F)O5)CC3)c(C)c2)no1 (centres unmarked) [Example 97] | > 100
23 | CN1CCC(Cc2cc(-c3nnc(C(F)(F)F)[nH]3)cnc2CN2CCC(c3cccc4c3O[C@@](C)(c3ccc(Cl)cc3F)O4)CC2)C1=O (some centres unmarked) [Example 92] | 1 to 100
24 | C[C@]1(c2ccc(Cl)cc2F)Oc2c(F)ccc(C3CCN(Cc4ncc(-c5nnc(C(F)(F)F)[nH]5)cc4CC4(C#N)CC4)CC3F)c2O1 (single isomer, unassigned) [Example 29] | < 1
25 | COC(C)Cc1cc(-c2nnc(C(F)(F)F)[nH]2)cnc1CN1CCC(c2cccc3c2O[C@@](C)(c2ccc(Cl)cc2F)O3)CC1 (some centres unmarked) [Example 81] | 1 to 100
26 | C[C@]1(c2ccc(Cl)cc2F)Oc2cccc(C3CCN(Cc4ncc(-c5nnc(C(F)(F)F)[nH]5)cc4CC4CCS4(=O)=O)CC3)c2O1 (stereo partly drawn) [Example 54, 2-{[2-({4-[(2S)-2-(4-chloro-2-fluorophenyl)-2-methyl-2H-1,3-benzodioxol-4-yl]piperidin-1-yl}methyl)-5-[5-(trifluoromethyl)-4H-1,2,4-triazol-3-yl]pyridin-3-yl]methyl}-1λ^6-thietane-1,1-dione] | 1 to 100
